Measurements: patent publication US20250011288A1 (BRISTOL-MYERS SQUIBB COMPANY, priority 2021, published 2025)

Biological target: T1, human RXFP1 (Homo sapiens, UniProt Q9HBX9)
T1 construct: expressed in transfected cells
T1 sequence (Q9HBX9 1-757): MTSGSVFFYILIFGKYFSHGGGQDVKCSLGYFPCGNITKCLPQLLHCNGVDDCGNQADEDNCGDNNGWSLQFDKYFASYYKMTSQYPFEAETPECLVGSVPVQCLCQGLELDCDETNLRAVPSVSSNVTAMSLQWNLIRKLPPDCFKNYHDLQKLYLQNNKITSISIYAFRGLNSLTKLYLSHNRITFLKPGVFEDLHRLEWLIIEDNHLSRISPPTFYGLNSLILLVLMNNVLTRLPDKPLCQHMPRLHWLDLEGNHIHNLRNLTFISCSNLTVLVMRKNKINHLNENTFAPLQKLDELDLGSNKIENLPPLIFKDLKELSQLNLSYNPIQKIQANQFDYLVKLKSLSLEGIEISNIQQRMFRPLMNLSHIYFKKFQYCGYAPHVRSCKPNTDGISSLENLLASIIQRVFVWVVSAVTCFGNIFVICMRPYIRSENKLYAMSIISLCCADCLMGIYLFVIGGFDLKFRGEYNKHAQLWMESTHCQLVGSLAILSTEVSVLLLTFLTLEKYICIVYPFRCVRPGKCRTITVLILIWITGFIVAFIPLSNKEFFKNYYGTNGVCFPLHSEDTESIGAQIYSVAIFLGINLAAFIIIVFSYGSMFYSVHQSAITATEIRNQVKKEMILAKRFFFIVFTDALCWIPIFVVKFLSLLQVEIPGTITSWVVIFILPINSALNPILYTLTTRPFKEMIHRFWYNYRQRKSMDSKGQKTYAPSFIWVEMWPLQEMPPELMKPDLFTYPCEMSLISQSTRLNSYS
Assay: human RXFP1 (hRXFP1) HEK293 cAMP assay (HTRF)
Assay type: cell-based
Details: HEK293 cells stably expressing human RXFP1, 30 min at room temperature
In short: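 Intracellular cAMP was quantified by HTRF after a 30 min room-temperature exposure of hRXFP1-HEK293 cells (1500/well) to compound at 0.010 nM–50 µM final, 2% DMSO. Buffer was HBSS with 20 mM HEPES, 0.05% BSA and 0.5 mM IBMX; values came from a 4-parameter logistic fit.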

Row | SMILES | EC50 [nM]
1 | O=C(O)c1ccc(F)c(C23COC(C(=O)N[C@H]4[C@@H](C(=O)Nc5ccc(F)c(C(F)(F)F)c5)[C@H]5CC[C@@H]4/C5=C\C(F)(F)F)(C2)C3)c1 [Example 81, 4-fluoro-3-(1-(((1R,2R,3S,4R,Z)-3-((4-fluoro-3-(trifluoromethyl)phenyl)carbamoyl)-7-(2,2,2-trifluoroethylidene)bicyclo[2.2.1]heptan-2-yl)carbamoyl)-2-oxabicyclo[2.1.1]hexan-4-yl)benzoic acid] | 2300
2 | COc1cc2c(cc1C(=O)N[C@H]1[C@@H](C(=O)Nc3ccc(F)c(C(F)(F)F)c3)[C@H]3CC[C@@H]1/C3=C\C1CC1)CN(C(=O)OC(C)(C)C)CC2 [Example 82, tert-butyl 7-(((1R,2R,3S,4R,Z)-7-(cyclopropylmethylene)-3-((4-fluoro-3-(trifluoromethyl)phenyl)carbamoyl)bicyclo[2.2.1]heptan-2-yl)carbamoyl)-6-methoxy-3,4-dihydroisoquinoline-2(1H)-carboxylate] | 660
3 | COc1cc2c(cc1C(=O)N[C@H]1[C@@H](C(=O)Nc3ccc(F)c(C(F)(F)F)c3)[C@H]3CC[C@@H]1/C3=C\C1CC1)CNCC2 [Example 83, N-((1R,2R,3S,4R,Z)-7-(cyclopropylmethylene)-3-((4-fluoro-3-(trifluoromethyl)phenyl)carbamoyl)bicyclo[2.2.1]heptan-2-yl)-6-methoxy-1,2,3,4-tetrahydroisoquinoline-7-carboxamide] | 2400
4 | COc1cc2c(cc1C(=O)N[C@H]1[C@@H](C(=O)Nc3ccc(F)c(C(F)(F)F)c3)[C@H]3CC[C@@H]1/C3=C\C1CC1)CN(CCS(C)(=O)=O)CC2 [Example 84, N-((1R,2R,3S,4R,Z)-7-(cyclopropylmethylene)-3-((4-fluoro-3-(trifluoromethyl)phenyl)carbamoyl)bicyclo[2.2.1]heptan-2-yl)-6-methoxy-2-(2-(methylsulfonyl)ethyl)-1,2,3,4-tetrahydroisoquinoline-7-carboxamide] | 330
5 | COc1cc2c(cc1C(=O)N[C@H]1[C@@H](C(=O)Nc3ccc(F)c(C(F)(F)F)c3)[C@H]3CC[C@@H]1/C3=C\C1CC1)CN(CC(C)(C)O)CC2 [Example 85, N-((1R,2R,3S,4R,Z)-7-(cyclopropylmethylene)-3-((4-fluoro-3-(trifluoromethyl)phenyl)carbamoyl)bicyclo[2.2.1]heptan-2-yl)-2-(2-hydroxy-2-methylpropyl)-6-methoxy-1,2,3,4-tetrahydroisoquinoline-7-carboxamide] | 200
6 | COc1cc2c(cc1C(=O)N[C@@H]1C3CCC(/C3=C/C3CC3)[C@@H]1C(=O)Nc1ccc(F)c(C(F)(F)F)c1)CN(CCCO)CC2 (stereo partly drawn) [Example 86, N-[(1R,2R,3S,4R)-7-(cyclopropyl-methylidene)-3-{[4-fluoro-3-(trifluoromethyl)phenyl]carbamoyl}bicyclo[2.2.1]heptan-2-yl]-2-(3-hydroxypropyl)-6-methoxy-1,2,3,4-tetrahydroiso-quinoline-7-carboxamide] | 240
7 | COCCN1CCc2cc(OC)c(C(=O)N[C@H]3[C@@H](C(=O)Nc4ccc(F)c(C(F)(F)F)c4)[C@H]4CC[C@@H]3/C4=C\C3CC3)cc2C1 [Example 87, N-[(1R,2R,3S,4R)-7-(cyclopropyl-methylidene)-3-{[4-fluoro-3-(trifluoromethyl)phenyl]carbamoyl}bicyclo[2.2.1]heptan-2-yl]-6-methoxy-2-(2-methoxyethyl)-1,2,3,4-tetrahydro-isoquinoline-7-carboxamide] | 630
8 | COc1cc2c(cc1C(=O)N[C@H]1[C@@H](C(=O)Nc3ccc(F)c(C(F)(F)F)c3)[C@H]3CC[C@@H]1/C3=C\C1CC1)CN(S(=O)(=O)CC(C)C)CC2 [Example 88, N-((1R,2R,3S,4R,Z)-7-(cyclopropylmethylene)-3-((4-fluoro-3-(trifluoromethyl)phenyl)carbamoyl)bicyclo[2.2.1]heptan-2-yl)-2-(isobutylsulfonyl)-6-methoxy-1,2,3,4-tetrahydroisoquinoline-7-carboxamide] | 110
9 | COc1cc2c(cc1C(=O)N[C@H]1[C@@H](C(=O)Nc3ccc(F)c(C(F)(F)F)c3)[C@H]3CC[C@@H]1/C3=C\C1CC1)CN(S(C)(=O)=O)CC2 [Example 89, N-[(1R,2R,3S,4R)-7-(cyclopropyl-methylidene)-3-{[4-fluoro-3-(trifluoromethyl)phenyl]carbamoyl}bicyclo[2.2.1]heptan-2-yl]-2-methanesulfonyl-6-methoxy-1,2,3,4-tetrahydro-isoquinoline-7-carboxamide] | 230
10 | COc1cc2c(cc1C(=O)N[C@H]1[C@@H](C(=O)Nc3ccc(F)c(C(F)(F)F)c3)[C@H]3CC[C@@H]1/C3=C\C1CC1)CCN(CCCO)C2 [Example 90, N-((1R,2R,3S,4R,Z)-7-(cyclopropylmethylene)-3-((4-fluoro-3-(trifluoromethyl)phenyl)carbamoyl)bicyclo[2.2.1]heptan-2-yl)-2-(3-hydroxypropyl)-7-methoxy-1,2,3,4-tetrahydroisoquinoline-6-carboxamide] | 2400
11 | COCCN1CCc2cc(C(=O)N[C@@H]3C4CCC(/C4=C/C4CC4)[C@@H]3C(=O)Nc3ccc(F)c(C(F)(F)F)c3)c(OC)cc2C1 (stereo partly drawn) [Example 91] | 4700
12 | COc1cc2c(cc1C(=O)N[C@@H]1C3CCC(/C3=C/C3CC3)[C@@H]1C(=O)Nc1ccc(F)c(C(F)(F)F)c1)CCN(CCS(C)(=O)=O)C2 (stereo partly drawn) [Example 92] | 4800
13 | COc1cc2c(cc1C(=O)N[C@@H]1C3CCC(/C3=C/C3CC3)[C@@H]1C(=O)Nc1ccc(F)c(C(F)(F)F)c1)CCN(S(C)(=O)=O)C2 (stereo partly drawn) [Example 93] | 1700
14 | COc1cc2c(cc1C(=O)N[C@@H]1C3CCC(/C3=C/C3CC3)[C@@H]1C(=O)Nc1ccc(F)c(C(F)(F)F)c1)CN(CCO)CC2 (stereo partly drawn) [Example 94] | 1200
15 | COc1cc2c(cc1C(=O)N[C@@H]1C3CCC(/C3=C/C3CC3)[C@@H]1C(=O)Nc1ccc(F)c(C(F)(F)F)c1)CCN(CC(C)(C)O)C2 (stereo partly drawn) [Example 95] | 1600
16 | COc1ncc(C2=NOC3CC(CO)CC23)cc1C(=O)N[C@H]1[C@@H](C(=O)Nc2ccc(F)c(C(F)(F)F)c2)[C@H]2CC[C@@H]1/C2=C\c1cscn1 (stereo partly drawn) [Example 96, N-((1R,2R,3S,4R,Z)-3-((4-fluoro-3-(trifluoromethyl)phenyl)carbamoyl)-7-(thiazol-4-ylmethylene)bicyclo[2.2.1]heptan-2-yl)-5-(5-(hydroxymethyl)-3a,5,6,6a-tetrahydro-4H-cyclopenta[d]isoxazol-3-yl)-2-methoxy-nicotinamide] | 1.4
17 | COc1ncc(C2=NOC3CC(CO)CC23)cc1C(=O)N[C@H]1[C@@H](C(=O)Nc2ccc(F)c(C(F)(F)F)c2)[C@H]2CC[C@@H]1/C2=C\c1cscn1 (stereo partly drawn) [Example 97, N-((1R,2R,3S,4R,Z)-3-((4-fluoro-3-(trifluoromethyl)phenyl)carbamoyl)-7-(thiazol-4-ylmethylene)bicyclo [2.2.1]heptan-2-yl)-5-(5-(hydroxymethyl)-3a,5,6,6a-tetrahydro-4H-cyclopenta[d]isoxazol-3-yl)-2-methoxy-nicotinamide] | 3.1
18 | COc1ncc(C2=NOC3CC(CO)CC23)cc1C(=O)N[C@@H]1C2CCC(/C2=C/c2csc(C)n2)[C@@H]1C(=O)N[C@H](C)C1(C)CC1 (stereo partly drawn) [Example 99] | 3.2
19 | COc1ncc(C2=NOC3COCC23)cc1C(=O)N[C@H]1[C@@H](C(=O)N[C@H](C)C2(C)CC2)[C@H]2CC[C@@H]1/C2=C\c1csc(C(F)F)n1 (stereo partly drawn) [Example 100, N-((1R,2R,3S,4R,Z)-7-((2-(difluoromethyl)thiazol-4-yl)methylene)-3-(((R)-1-(1-methylcyclopropyl)ethyl)carbamoyl)bicyclo[2.2.1]heptan-2-yl)-2-methoxy-5-(3a,4,6,6a-tetrahydrofuro[3,4-d]isoxazol-3-yl)nicotinamide] | 3.4
20 | COc1ncc(C2=NOC3CC(CO)CC23)cc1C(=O)N[C@H]1[C@@H](C(=O)Nc2ccc(F)c(C(F)(F)F)c2)[C@H]2CC[C@@H]1/C2=C\C1CCCC1 (stereo partly drawn) [Example 101, N-((1R,2R,3S,4R,Z)-7-(cyclopentyl-methylene)-3-((4-fluoro-3-(trifluoromethyl)phenyl)carbamoyl)bicyclo[2.2.1]heptan-2-yl)-5-(5-(hydroxymethyl)-3a,5,6,6a-tetrahydro-4H-cyclopenta[d]isoxazol-3-yl)-2-methoxynicotinamide] | 1.6
21 | COc1ncc(-c2cnc3n2CC(O)CC3)cc1C(=O)N[C@H]1[C@@H](C(=O)Nc2ccc(F)c(C(F)(F)F)c2)[C@H]2CC[C@@H]1/C2=C\C1CC1 (stereo partly drawn) [Example 102, N-((1R,2R,3S,4R,Z)-7-(cyclopropyl-methylene)-3-((4-fluoro-3-(trifluoromethyl)phenyl)carbamoyl)bicyclo[2.2.1]heptan-2-yl)-5-(6-hydroxy-5,6,7,8-tetrahydroimidazo [1,2-a]pyridin-3-yl)-2-methoxynicotinamide] | 2.5
